The values below come from patent US12564638B2 (SHANGHAITECH UNIVERSITY, priority 2019, dated 2026).

Each structure is given as a SMILES string.

For one test, the system named is HCC827 cells (EGFR Exon19 del, non-small cell lung cancer cells). Nature of the test: Cell viability assay (WST/CCK8), HCC827 cells. Type of test: cell-based. The note with it: Homo sapiens, HCC827, 72 h, HCC827 (Exon19 Del), 72 hours, WST (CCK8); read-out: IC50 (half inhibitory concentration). In short, it runs like this: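 Cells seeded at 3 000/well in RPMI1640 complete medium, dosed next day with compounds (top 10 μM, 3-fold, 10 points) for 72 h. Viability read with WST (CCK8) reagent; DMSO as negative control, EGFR TKIs as positive controls; IC50 determined.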
Take `COc1cc2ncnc(Nc3ccc(F)c(Cl)c3)c2cc1NC(=O)/C=C/CN1CCN(C(=O)CCCCC(=O)N[C@H](C(=O)N2C[C@H](O)C[C@H]2C(=O)NCc2ccc(-c3scnc3C)cc2)C(C)(C)C)CC1` [SIAIS249042, (2S,4R)-1-((S)-2-(6-(4-((E)-4-((4-((3-chloro-4-fluorophenyl)amino)-7-methoxyquinazolin-6-yl)amino)-4-oxobut-2-en-1-yl)piperazin-1-yl)-6-oxohexanamido)-3,3-dimethylbutanoyl)-4-hydroxy-N-(4-(4-methylthiazol-5-yl)benzyl)pyrrolidine-2-carboxamide]: the IC50 came out at 31.3 nM.

The same test, now with this note: Homo sapiens, HCC827, 72 h, Table 3, poziotinib-based compounds; HCC827 (Exon19 Del); 72 hours; WST (CCK8); read-out: IC50 (half inhibitory concentration).
`COc1cc2ncnc(Nc3ccc(Cl)c(Cl)c3F)c2cc1OC1CCN(C(=O)CCCCC(=O)N[C@H](C(=O)N2C[C@H](O)C[C@H]2C(=O)NCc2ccc(-c3scnc3C)cc2)C(C)(C)C)CC1` [SIAIS249021, (2S,4R)-1-((S)-2-(6-(4-((4-((3,4-dichloro-2-fluorophenyl)amino)-7-methoxyquinazolin-6-yl)oxy)piperidin-1-yl)-6-oxohexanamido)-3,3-dimethylbutanoyl)-4-hydroxy-N-(4-(4-methylthiazol-5-yl)benzyl)pyrrolidine-2-carboxamide]: the IC50 was determined as 75.4 nM.
On the same count and under the same terms, then `COc1cc2ncnc(Nc3ccc(Cl)c(Cl)c3F)c2cc1OC1CCN(C(=O)CCOCCNc2cccc3c2C(=O)N(C2CCC(=O)NC2=O)C3=O)CC1` (stereo not drawn) [SIAIS249029, 4-((2-(3-(4-((4-((3,4-dichloro-2-fluorophenyl)amino)-7-methoxyquinazolin-6-yl)oxy)piperidin-1-yl)-3-oxopropoxy)ethyl)amino)-2-(2,6-dioxopiperidin-3-yl)isoindoline-1,3-dione], with 80 nM; and `COc1cc2ncnc(Nc3ccc(Cl)c(Cl)c3F)c2cc1OC1CCN(C(=O)CCOCCOCCOCCOCCC(=O)N[C@H](C(=O)N2C[C@H](O)C[C@H]2C(=O)NCc2ccc(-c3scnc3C)cc2)C(C)(C)C)CC1` [SIAIS249027, (2S,4R)-1-((S)-2-(tert-butyl)-19-(4-((4-((3,4-dichloro-2-fluorophenyl)amino)-7-methoxyquinazolin-6-yl)oxy)piperidin-1-yl)-4,19-dioxo-7,10,13,16-tetraoxa-3-azanonadecan-1-oyl)-4-hydroxy-N-(4-(4-methylthiazol-5-yl)benzyl)pyrrolidine-2-carboxamide], with 400 nM.
The same measure, in the same setting: then `COc1cc2ncnc(Nc3ccc(Cl)c(Cl)c3F)c2cc1OC1CCN(C(=O)CCCCCSc2cccc3c2C(=O)N(C2CCC(=O)NC2=O)C3=O)CC1` (stereo not drawn) [SIAIS249018, 4-((6-(4-((4-((3,4-dichloro-2-fluorophenyl)amino)-7-methoxyquinazolin-6-yl)oxy)piperidin-1-yl)-6-oxohexyl)thio)-2-(2,6-dioxopiperidin-3-yl)isoindoline-1,3-dione], with 13.3 nM; and `COc1cc2ncnc(Nc3ccc(Cl)c(Cl)c3F)c2cc1OC1CCN(C(=O)CCCCCCSc2cccc3c2C(=O)N(C2CCC(=O)NC2=O)C3=O)CC1` (stereo not drawn) [SIAIS249019, 4-((7-(4-((4-((3,4-dichloro-2-fluorophenyl)amino)-7-methoxyquinazolin-6-yl)oxy)piperidin-1-yl)-7-oxoheptyl)thio)-2-(2,6-dioxopiperidin-3-yl)isoindoline-1,3-dione], with 38 nM.

Staying with this test, now noted: Homo sapiens, HCC827, 72 h, Table 4, gefitinib and sapitinib-based compounds; HCC827 (Exon19 Del); 72 hours; WST; read-out: IC50 (half inhibitory concentration).
With `COc1cc2ncnc(Nc3ccc(F)c(Cl)c3)c2cc1OCCCN1CCC(N2CCN(CCCC#Cc3cccc4c3CN(C3CCC(=O)NC3=O)C4=O)CC2)CC1` (stereo not drawn) [SIAIS262089, 3-(4-(5-(4-(1-(3-((4-((3-chloro-4-fluorophenyl)amino)-7-methoxyquinazolin-6-yl)oxy)propyl)piperidin-4-yl)piperazin-1-yl)pent-1-yn-1-yl)-1-oxoisoindolin-2-yl)piperidine-2,6-dione], the IC50 was 102 nM.
The same measure, in the same setting: then `COc1cc2ncnc(Nc3ccc(F)c(Cl)c3)c2cc1OC1CCN(CC(=O)NCCCSc2cccc3c2CN(C2CCC(=O)NC2=O)C3=O)CC1` (stereo not drawn) [SIAIS293048, 2-(4-((4-((3-chloro-4-fluorophenyl)amino)-7-methoxyquinazolin-6-yl)oxy)piperidin-1-yl)-N-(3-((2-(2,6-dioxopiperidin-3-yl)-1-oxoisoindolin-4-yl)thio)propyl)acetamide], with 23 nM; and `COc1cc2ncnc(Nc3ccc(F)c(Cl)c3)c2cc1OC1CCN(CC(=O)NCCCCCCCCSc2cccc3c2CN(C2CCC(=O)NC2=O)C3=O)CC1` (stereo not drawn) [SIAIS293052, 2-(4-((4-((3-chloro-4-fluorophenyl)amino)-7-methoxyquinazolin-6-yl)oxy)piperidin-1-yl)-N-(8-((2-(2,6-dioxopiperidin-3-yl)-1-oxoisoindolin-4-yl)thio)octyl)acetamide], with 0.25 nM.
Still for that read-out and setting: then `COc1cc2ncnc(Nc3ccc(F)c(Cl)c3)c2cc1OCCCN1CCN(C(=O)COCCOCCOCCOCCOCCSc2cccc3c2C(=O)N(C2CCC(=O)NC2=O)C3=O)CC1` (stereo not drawn) [SIAIS184170, 4-((17-(4-(3-((4-((3-chloro-4-fluorophenyl)amino)-7-methoxyquinazolin-6-yl)oxy)propyl)piperazin-1-yl)-17-oxo-3,6,9,12,15-pentaoxaheptadecyl)thio)-2-(2,6-dioxopiperidin-3-yl)isoindoline-1,3-dione], with 186 nM.
On the same count and under the same terms, then `COc1cc2ncnc(Nc3ccc(F)c(Cl)c3)c2cc1OC1CCN(CC(=O)NCCSc2cccc3c2CN(C2CCC(=O)NC2=O)C3=O)CC1` (stereo not drawn) [SIAIS293047, 2-(4-((4-((3-chloro-4-fluorophenyl)amino)-7-methoxyquinazolin-6-yl)oxy)piperidin-1-yl)-N-(2-((2-(2,6-dioxopiperidin-3-yl)-1-oxoisoindolin-4-yl)thio)ethyl)acetamide], with 12 nM; and `COc1cc2ncnc(Nc3ccc(F)c(Cl)c3)c2cc1OCCCN1CCN(C(=O)CCCSc2cccc3c2CN(C2CCC(=O)NC2=O)C3=O)CC1` (stereo not drawn) [SIAIS184185, 3-(4-((4-(4-(3-((4-((3-chloro-4-fluorophenyl)amino)-7-methoxyquinazolin-6-yl)oxy)propyl)piperazin-1-yl)-4-oxobutyl)thio)-1-oxoisoindolin-2-yl)piperidine-2,6-dione], with 113 nM.
Turning to `COc1cc2ncnc(Nc3ccc(F)c(Cl)c3)c2cc1OCCCN1CCC(N2CCN(C(=O)CSc3cccc4c3CN(C3CCC(=O)NC3=O)C4=O)CC2)CC1` (stereo not drawn) [SIAIS262085, 3-(4-((2-(4-(1-(3-((4-((3-chloro-4-fluorophenyl)amino)-7-methoxyquinazolin-6-yl)oxy)propyl)piperidin-4-yl)piperazin-1-yl)-2-oxoethyl)thio)-1-oxoisoindolin-2-yl)piperidine-2,6-dione], the IC50 amounted to 145 nM.

Still in this test, the particulars now being: Homo sapiens, HCC827, 72 h, Table 5, afatinib-based compounds; HCC827 (Exon19 Del); 72 hours; WST; read-out: IC50 (half inhibitory concentration).
Regarding `O=C1CCC(N2Cc3c(SCCCC(=O)Nc4cc5c(Nc6ccc(F)c(Cl)c6)ncnc5cc4O[C@H]4CCOC4)cccc3C2=O)C(=O)N1` (stereo partly drawn) [SIAIS1210087, N-(4-((3-chloro-4-fluorophenyl)amino)-7-(((S)-tetrahydrofuran-3-yl)oxy)quinazolin-6-yl)-4-((2-(2,6-dioxopiperidin-3-yl)-1-oxoisoindolin-4-yl)thio)butanamide], the IC50 is 238 nM.
The same measure, in the same setting: then `O=C1CCC(N2C(=O)c3cccc(SCCOCCOCCOCC(=O)Nc4cc5c(Nc6ccc(F)c(Cl)c6)ncnc5cc4O[C@H]4CCOC4)c3C2=O)C(=O)N1` (stereo partly drawn) [SIAIS184154, N-(4-((3-chloro-4-fluorophenyl)amino)-7-(((S)-tetrahydrofuran-3-yl)oxy)quinazolin-6-yl)-2-(2-(2-(2-((2-(2,6-dioxopiperidin-3-yl)-1,3-dioxoisoindolin-4-yl)thio)ethoxy)ethoxy)ethoxy)acetamide], with 250 nM.
